Values of other authors, collected in US12059506B2, “Coated implantable device” (NOBIL BIO RICERCHE S.R.L., priority 2017, dated 2024).

Details: aqueous phase

C[C@@H]1O[C@@H](Oc2c(-c3ccc(O)c(O)c3)oc3cc(O)cc(O)c3c2=O)[C@H](O)[C@H](O)[C@H]1O [quercitrin]
solubility in water: insoluble
